We go through 24 compounds from US20220356186A1, “PERK INHIBITING PYRROLOPYRIMIDINE COMPOUNDS” (HiberCell, Inc., priority 2019, published 2022).

Where two headings read alike, the source gives them in different places. Bounds are passed on as bounds.

In assay [1] the test system is GFP-eIF2α in HEK293 cells. The assay can be described thus: PERK cellular assay, TR-FRET in HEK293-EGFP-eIF2a cells after tunicamycin-induced ER stress. It is filed as cell-based. To be noted: HEK293-EGFP-eIF2a cells, tunicamycin 2 hours, read-out: Cellular eIF2α IC50. The method, boiled down:
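HEK293 cells stably expressing GFP-eIF2α, plated 5000 cells/well overnight, pretreated with inhibitors 30 min at 37 °C, then ER stress induced with tunicamycin […] for 2 h.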

The target in assay [2] is T1, EIF2AK3 (PERK) catalytic domain (amino acids 536-1116) (Homo sapiens, UniProt Q9NZJ5).
T1 construct: EIF2AK3 (PERK) catalytic domain (amino acids 536-1116)
T1 sequence (Q9NZJ5 536-1116): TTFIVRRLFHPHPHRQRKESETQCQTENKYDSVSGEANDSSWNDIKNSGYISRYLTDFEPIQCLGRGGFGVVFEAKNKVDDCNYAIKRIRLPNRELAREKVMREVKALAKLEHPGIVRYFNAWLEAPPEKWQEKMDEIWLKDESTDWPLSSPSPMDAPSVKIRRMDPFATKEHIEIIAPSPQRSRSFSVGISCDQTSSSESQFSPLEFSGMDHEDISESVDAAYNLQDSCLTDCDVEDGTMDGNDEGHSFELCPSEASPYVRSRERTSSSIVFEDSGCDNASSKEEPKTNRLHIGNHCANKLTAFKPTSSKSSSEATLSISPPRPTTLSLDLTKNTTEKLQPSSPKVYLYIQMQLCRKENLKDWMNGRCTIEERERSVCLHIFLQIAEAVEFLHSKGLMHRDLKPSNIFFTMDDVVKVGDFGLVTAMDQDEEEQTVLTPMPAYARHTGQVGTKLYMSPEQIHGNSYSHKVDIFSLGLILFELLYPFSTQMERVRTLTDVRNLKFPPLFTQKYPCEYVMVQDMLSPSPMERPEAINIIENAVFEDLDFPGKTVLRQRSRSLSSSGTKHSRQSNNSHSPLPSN
Nature of the assay: PERK in vitro activity assay (isolated), TR-FRET kinase assay. The format is biochemical. To be noted: isolated PERK enzyme, 1.5 μM ATP; read-out: Biochemical IC50. An outline of the steps: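 Human PERK catalytic domain (aa 536-1116) phosphorylating 100-200 nM GFP-eIF2a in 50 mM HEPES pH 7.5, 10 mM MgCl2, 1 mM EGTA, 0.01% Brij-35; enzyme-started, 45 min at room temperature. Stopped with 10 mM EDTA, 2 nM Tb-anti-phospho-eIF2a added for 90 min; IC50 from TR-FRET ratios by 4-parameter logistic fit.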
In general terms: TR-FRET usually uses a lanthanide donor and a delayed reading to cut background.

Usually IC50 stands for the concentration that gives 50% inhibition. `Cc1cc(NC(=O)c2ccccc2)ccc1-c1cn(C)c2ncnc(N)c12` [Example 167, N-(4-(4-amino-7-methyl-7H-pyrrolo[2,3-d]pyrimidin-5-yl)-3-methylphenyl)benzamide]: the IC50 in assay [1] (Homo sapiens, HEK293, 2 h) was in the range of 3000 to 4000 nM; in assay [2], 101 to 250 nM.

With `Cc1cccc(CC(=O)Nc2ccc(-c3cn(C)c4ncnc(N)c34)c(C)c2)c1` [Example 143, N-(4-(4-amino-7-methyl-7H-pyrrolo[2,3-d]pyrimidin-5-yl)-3-methylphenyl)-2-(m-tolyl)acetamide], the half-maximal inhibitory concentration (IC50) in assay [1] (Homo sapiens, HEK293, 2 h) fell in the range of 26 to 50 nM; in assay [2], 1 to 25 nM.

Take `Cc1nc(N)c2c(-c3cc(F)c(NC(=O)C(O)c4cccc(F)c4)cc3C)cn(C)c2n1` (single isomer, unassigned) [Example 121, N-(4-(4-amino-2,7-dimethyl-7H-pyrrolo[2,3-d]pyrimidin-5-yl)-2-fluoro-5-methylphenyl)-2-(3-fluorophenyl)-2-hydroxyacetamide]: the results for the IC50 in assay [1] and in assay [2] were 26 to 50 nM and 1 to 25 nM, respectively.

For `Cc1nc(N)c2c(-c3ccc(NC(=O)C(O)c4ccccc4F)cc3C)cn(C)c2n1` (stereo not drawn) [Example 32, N-(4-(4-amino-2,7-dimethyl-7H-pyrrolo[2,3-d]pyrimidin-5-yl)-3-methylphenyl)-2-(2-fluorophenyl)-2-hydroxyacetamide], the IC50 in assay [1] (Homo sapiens, HEK293, 2 h) fell in the range of 251 to 500 nM; in assay [2], 101 to 250 nM.

As for `Cc1nc(N)c2c(-c3ccc(NC(=O)C(O)c4cccc(Cl)c4)cc3C)cn(C)c2n1` (stereo not drawn) [Example 37, N-(4-(4-amino-2,7-dimethyl-7H-pyrrolo[2,3-d]pyrimidin-5-yl)-3-methylphenyl)-2-(3-chlorophenyl)-2-hydroxyacetamide], the IC50 in assay [1] and in assay [2] was 1 to 25 nM throughout.

In the case of `CCc1cccc(C(O)C(=O)Nc2ccc(-c3cn(C)c4nc(C)nc(N)c34)c(Cl)c2)c1` (stereo not drawn) [Example 98, N-(4-(4-amino-2,7-dimethyl-7H-pyrrolo[2,3-d]pyrimidin-5-yl)-3-chlorophenyl)-2-(3-ethylphenyl)-2-hydroxyacetamide], the IC50 was 251 to 500 nM in assay [1] and 51 to 100 nM in assay [2].

For `Cc1nc(N)c2c(-c3ccc(NC(=O)C(O)c4cccc(Cl)c4)cc3C)cn(C)c2n1` (stereo not drawn) [Example 38, N-(4-(4-amino-2,7-dimethyl-7H-pyrrolo[2,3-d]pyrimidin-5-yl)-3-methylphenyl)-2-(3-chlorophenyl)-2-hydroxyacetamide], the values for the 50% inhibitory concentration (IC50) in assay [1] and in assay [2] were 501 to 1000 nM and 51 to 100 nM, respectively.

`CCc1cc(NC(=O)C(O)c2cccc(F)c2)ccc1-c1cn(C)c2ncnc(N)c12` (stereo not drawn) [Example 17, N-(4-(4-amino-7-methyl-7H-pyrrolo[2,3-d]pyrimidin-5-yl)-3-ethylphenyl)-2-(3-fluorophenyl)-2-hydroxyacetamide]: the IC50 was 1 to 25 nM in assay [1] (Homo sapiens, HEK293, 2 h) and 1 to 25 nM in assay [2].

As for `Cc1cc(NC(=O)Cc2ccc(F)cc2)ccc1-c1cn(C)c2ncnc(N)c12` [Example 140, N-(4-(4-amino-7-methyl-7H-pyrrolo[2,3-d]pyrimidin-5-yl)-3-methylphenyl)-2-(4-fluorophenyl)acetamide], the IC50 in assay [1] (Homo sapiens, HEK293, 2 h) was in the range of 26 to 50 nM; in assay [2], 1 to 25 nM.

Regarding `Cc1nc(N)c2c(-c3ccc(NC(=O)C(O)c4ccccc4C)cc3Cl)cn(C)c2n1` (stereo not drawn) [Example 94, N-(4-(4-amino-2,7-dimethyl-7H-pyrrolo[2,3-d]pyrimidin-5-yl)-3-chlorophenyl)-2-hydroxy-2-(o-tolyl)acetamide], the values for the IC50 in assay [1] and in assay [2] were 51 to 100 nM and 1 to 25 nM, respectively.

For `Cc1c(-c2cn(C)c3ncnc(N)c23)ccc(NC(=O)C(O)c2cccc(F)c2)c1F` (stereo not drawn) [Example 117, N-(4-(4-amino-7-methyl-7H-pyrrolo[2,3-d]pyrimidin-5-yl)-2-fluoro-3-methylphenyl)-2-(3-fluorophenyl)-2-hydroxyacetamide], the 50% inhibitory concentration (IC50) in assay [1] and in assay [2] was 1 to 25 nM each time.

Turning to `Cc1nc(N)c2c(-c3ccc(NC(=O)C(O)c4cccc(C(F)(F)F)c4)c(F)c3F)cn(C)c2n1` (stereo not drawn) [Example 108, N-(4-(4-amino-2,7-dimethyl-7H-pyrrolo[2,3-d]pyrimidin-5-yl)-2,3-difluorophenyl)-2-hydroxy-2-(3-(trifluoromethyl)phenyl)acetamide], the IC50 in assay [1] and in assay [2] was 101 to 250 nM in each case.

`CCc1cc(NC(=O)C(O)c2cccc(F)c2)ccc1-c1cn(C)c2nc(C)nc(N)c12` (stereo not drawn) [Example 69, N-(4-(4-amino-2,7-dimethyl-7H-pyrrolo[2,3-d]pyrimidin-5-yl)-3-ethylphenyl)-2-(3-fluorophenyl)-2-hydroxyacetamide]: the IC50 was in the range of 2000 to 3000 nM in assay [1] and 101 to 250 nM in assay [2].

Take `Cc1nc(N)c2c(-c3ccc(NC(=O)C(O)c4cc(F)cc(C(F)(F)F)c4)cc3C)cn(C)c2n1` (single isomer, unassigned) [Example 55, N-(4-(4-amino-2,7-dimethyl-7H-pyrrolo[2,3-d]pyrimidin-5-yl)-3-methylphenyl)-2-(3-fluoro-5-(trifluoromethyl)phenyl)-2-hydroxyacetamide]: the 50% inhibitory concentration (IC50) in assay [1] fell in the range of 251 to 500 nM; in assay [2], 101 to 250 nM.

`COc1cccc(CC(=O)Nc2ccc(-c3cn(C)c4ncnc(N)c34)c(C)c2)c1` [Example 139, N-(4-(4-amino-7-methyl-7H-pyrrolo[2,3-d]pyrimidin-5-yl)-3-methylphenyl)-2-(3-methoxyphenyl)acetamide]: the concentration for half-maximal inhibition (IC50) in assay [1] (Homo sapiens, HEK293, 2 h) lay in the range of 251 to 500 nM; in assay [2], 26 to 50 nM.

Take `Cc1cccc(C(O)C(=O)Nc2ccc(-c3cn(C)c4ncnc(N)c34)c(C)c2)c1` (stereo not drawn) [Example 41, N-(4-(4-amino-7-methyl-7H-pyrrolo[2,3-d]pyrimidin-5-yl)-3-methylphenyl)-2-hydroxy-2-(m-tolyl)acetamide]: the IC50 was 1 to 25 nM in assay [1] (Homo sapiens, HEK293, 2 h) and 1 to 25 nM in assay [2].

For `Cc1cc(NC(=O)CC2CCCCC2)ccc1-c1cn(C)c2ncnc(N)c12` [Example 166, N-(4-(4-amino-7-methyl-7H-pyrrolo[2,3-d]pyrimidin-5-yl)-3-methylphenyl)-2-cyclohexyl-acetamide], the half-maximal inhibitory concentration (IC50) in assay [1] (Homo sapiens, HEK293, 2 h) lay in the range of 101 to 250 nM; in assay [2] it was 1 to 25 nM.

`Cc1nc(N)c2c(-c3ccc(NC(=O)C(O)c4cccc(F)c4)c(F)c3C)cn(C)c2n1` (stereo not drawn) [Example 12, N-(4-(4-amino-2,7-dimethyl-7H-pyrrolo[2,3-d]pyrimidin-5-yl)-2-fluoro-3-methylphenyl)-2-(3-fluorophenyl)-2-hydroxyacetamide]: the IC50 in assay [1] and in assay [2] was 1 to 25 nM throughout.

`Cc1nc(N)c2c(-c3ccc(NC(=O)C(O)c4cccc(F)c4)cc3)cn(C)c2n1` (stereo not drawn) [Example 23, N-(4-(4-amino-2,7-dimethyl-7H-pyrrolo[2,3-d]pyrimidin-5-yl)phenyl)-2-(3-fluorophenyl)-2-hydroxyacetamide]: the half-inhibitory concentration (IC50) fell in the range of 501 to 1000 nM in assay [1] (Homo sapiens, HEK293, 2 h) and 1 to 25 nM in assay [2].

For the compound `COc1cc(NC(=O)C(O)c2cccc(F)c2)ccc1-c1cn(C)c2ncnc(N)c12` (stereo not drawn) [Example 104, N-(4-(4-amino-7-methyl-7H-pyrrolo[2,3-d]pyrimidin-5-yl)-3-methoxyphenyl)-2-(3-fluorophenyl)-2-hydroxyacetamide], the IC50 in assay [1] lay within 101 to 250 nM; in assay [2], 26 to 50 nM.

On to `COc1cc(NC(=O)C(O)c2cccc(F)c2)ccc1-c1cn(C)c2ncnc(N)c12` (stereo not drawn) [Example 103, N-(4-(4-amino-7-methyl-7H-pyrrolo[2,3-d]pyrimidin-5-yl)-3-methoxyphenyl)-2-(3-fluorophenyl)-2-hydroxyacetamide], for which the IC50 in assay [1] was in the range of 2000 to 3000 nM; in assay [2], 101 to 250 nM.

Consider `Cc1nc(N)c2c(-c3ccc(NC(=O)C(O)c4cccc(F)c4)cc3OC(F)(F)F)cn(C)c2n1` (single isomer, unassigned) [Example 22, N-(4-(4-amino-2,7-dimethyl-7H-pyrrolo[2,3-d]pyrimidin-5-yl)-3-(trifluoromethoxy)phenyl)-2-(3-fluorophenyl)-2-hydroxyacetamide], for which the IC50 in assay [1] is over 5000 nM; in assay [2], 101 to 250 nM.

For `Cc1cc(NC(=O)Cc2ccccc2)ccc1-c1cn(C)c2ncnc(N)c12` [Example 137, N-(4-(4-amino-7-methyl-7H-pyrrolo[2,3-d]pyrimidin-5-yl)-3-methylphenyl)-2-phenylacetamide], the concentration for half-maximal inhibition (IC50) in assay [1] (Homo sapiens, HEK293, 2 h) fell in the range of 26 to 50 nM; in assay [2], 1 to 25 nM.

With `Cc1nc(N)c2c(-c3ccc(NC(=O)C(O)c4cccc5c4OCC5)cc3C)cn(C)c2n1` (stereo not drawn) [Example 63, N-(4-(4-amino-2,7-dimethyl-7H-pyrrolo[2,3-d]pyrimidin-5-yl)-3-methylphenyl)-2-(2,3-dihydrobenzofuran-7-yl)-2-hydroxyacetamide], the IC50 was 2000 to 3000 nM in assay [1] (Homo sapiens, HEK293, 2 h) and 101 to 250 nM in assay [2].
